# From patent publication US9376442B2, “Methylpyrrolopyrimidinecarboxamides” (Takeda GmbH, priority 2009, dated 2016)
# Biological target: T1, PDE5A1 (Homo sapiens, UniProt O76074)
# T1 construct: from tissue; host or cells: human platelets from fresh donor blood (10,000 x g supernatant of sonicated lysate)
# Assay: Inhibition of type 5 phosphodiesterase (PDE5) activity, modified SPA test with human platelet lysate
# Assay type: biochemical
# Conditions: 0.5 μM cGMP, read-out: PDE5A1 inhibitory values [measured as −log IC50 (mol/l)] (converted)
# Summary of the method: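 Scintillation proximity assay with [3H]cGMP tracer at 0.5 μM total cGMP, stopped after 15 min with beads containing IBMX. PDE3 and PDE2 activities suppressed with motapizone (1 μM) and a PDE2 inhibitor (10 nM). Human platelet supernatant served as the enzyme, with compound preincubated 5 min at 37° C; IC50 values from concentration-effect curves.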
row,IC50 [nM],SMILES
1,< 1,"COc1cc(-c2ncnc3c(C(=O)N[C@@H]4CN(C(=O)[C@H](C)O)C[C@H]4O)c(C)[nH]c23)c(OCC2CC2)cc1F (relative stereo) [Example F114, 4-[2-(Cyclopropylmethoxy)-4-fluoro-5-methoxyphenyl]-N-{(3R*,4R*)-4-hydroxy-1-[(2S)-2-hydroxypropanoyl]pyrrolidin-3-yl}-6-methyl-5H-pyrrolo[3,2-d]pyrimidine-7-carboxamide]"
2,1 to 10,"COc1ccc(OCC2CC2)c(-c2ncnc3c(C(=O)N[C@@H]4CN(C(=O)CO)C[C@H]4O)c(C)[nH]c23)c1 (relative stereo) [Example F119, 4-[2-(Cyclopropylmethoxy)-5-methoxyphenyl]-N-[(3R*,4R*)-1-glycoloyl-4-hydroxypyrrolidin-3-yl]-6-methyl-5H-pyrrolo[3,2-d]pyrimidine-7-carboxamide]"
3,< 1,"COc1cc(-c2nc(C)nc3c(C(=O)NC4CCN(C(=O)[C@H](C)O)CC4)c(C)[nH]c23)c(OCC2CC2)cc1F [Example F110, 4-[2-(Cyclopropylmethoxy)-4-fluoro-5-methoxyphenyl]-N-{1-[(2S)-2-hydroxypropanoyl]piperidin-4-yl}-2,6-dimethyl-5H-pyrrolo[3,2-d]pyrimidine-7-carboxamide]"
4,< 1,"COc1cc(OCC2CC2)c(-c2ncnc3c(C(=O)NC4CCN(C(=O)CO)CC4)c(C)[nH]c23)cc1F [Example F83, 4-[2-(Cyclopropylmethoxy)-5-fluoro-4-methoxyphenyl]-N-(1-glycoloylpiperidin-4-yl)-6-methyl-5H-pyrrolo[3,2-d]pyrimidine-7-carboxamide]"
5,< 1,"COc1ccc(-c2ncnc3c(C(=O)N[C@@H]4CCN(C(=O)[C@H](C)O)C4)c(C)[nH]c23)c(OCC2CC2)c1 [Example F38, 4-[2-(Cyclopropylmethoxy)-4-methoxyphenyl]-N-{(3R)-1-[(2S)-2-hydroxypropanoyl]pyrrolidin-3-yl}-6-methyl-5H-pyrrolo[3,2-d]pyrimidine-7-carboxamide]"
6,< 1,"CC(=O)c1ccc(OCC2CC2)c(-c2ncnc3c(C(=O)N[C@H]4CC[C@H](NC(=O)[C@H](C)O)CC4)c(C)[nH]c23)c1 [Example F105, 4-[5-Acetyl-2-(cyclopropylmethoxy)phenyl]-N-(trans-4-{[(2S)-2-hydroxypropanoyl]amino}cyclohexyl)-6-methyl-5H-pyrrolo[3,2-d]pyrimidine-7-carboxamide]"
7,< 1,"CC(=O)c1ccc(OCC2CC2)c(-c2ncnc3c(C(=O)NC4CCN(C(=O)[C@H](C)O)CC4)c(C)[nH]c23)c1 [Example F103, 4-[5-Acetyl-2-(cyclopropylmethoxy)phenyl]-N-{1-[(2S)-2-hydroxypropanoyl]piperidin-4-yl}-6-methyl-5H-pyrrolo[3,2-d]pyrimidine-7-carboxamide]"

# Continued, compound first:
row,SMILES,IC50 [nM]
1,"CC(=O)N[C@H]1CC[C@H](NC(=O)c2c(C)[nH]c3c(-c4cc(C)c(F)cc4OCC4CC4)ncnc23)CC1 [Example E122, N-[trans-4-(Acetylamino)cyclohexyl]-4-[2-(cyclopropylmethoxy)-4-fluoro-5-methylphenyl]-6-methyl-5H-pyrrolo[3,2-d]pyrimidine-7-carboxamide]",< 1
2,"COCC(=O)N[C@H]1CC[C@H](NC(=O)c2c(C)[nH]c3c(-c4ccc(F)cc4OCC4CC4)ncnc23)CC1 [Example E24, 4-[2-(Cyclopropylmethoxy)-4-fluorophenyl]-N-{trans-4-[(methoxyacetyl)amino]cyclohexyl}-6-methyl-5H-pyrrolo[3,2-d]pyrimidine-7-carboxamide]",< 1
3,"CCC(=O)N[C@H]1CC[C@H](NC(=O)c2c(C)[nH]c3c(-c4ccc(F)cc4OCC4CC4)ncnc23)CC1 [Example E23, 4-[2-(Cyclopropylmethoxy)-4-fluorophenyl]-6-methyl-N-[trans-4-(propionylamino)cyclohexyl]-5H-pyrrolo[3,2-d]pyrimidine-7-carboxamide]",< 1
4,"COCC(=O)N1CCC(NC(=O)c2c(C)[nH]c3c(-c4cc(C)c(F)cc4OCC4CC4)ncnc23)CC1 [Example E121, 4-[2-(Cyclopropylmethoxy)-4-fluoro-5-methylphenyl]-N-[1-(methoxyacetyl)piperidin-4-yl]-6-methyl-5H-pyrrolo[3,2-d]pyrimidine-7-carboxamide]",< 1
5,"COc1cc(-c2ncnc3c(C(=O)N[C@H]4CC[C@H](NC(C)=O)CC4)c(C)[nH]c23)c(OCC2CC2)cc1F [Example E106, N-(trans-4-Acetamidocyclohexyl)-4-[2-(cyclopropylmethoxy)-4-fluoro-5-methoxyphenyl]-6-methyl-5H-pyrrolo[3,2-d]pyrimidine-7-carboxamide]",< 1
6,"COCC(=O)N1CC[C@@H](NC(=O)c2c(C)[nH]c3c(-c4cc(OC)c(F)cc4OCC4CC4)ncnc23)[C@H](O)C1 (relative stereo) [Example E115, 4-[2-(cyclopropylmethoxy)-4-fluoro-5-methoxyphenyl]-N-[(3R*,4R*)-3-hydroxy-1-(methoxyacetyl)piperidin-4-yl]-6-methyl-5H-pyrrolo[3,2-d]pyrimidine-7-carboxamide]",< 1
7,"COc1cc(-c2ncnc3c(C(=O)N[C@H]4CN(C(C)=O)CC[C@@H]4O)c(C)[nH]c23)c(OCC2CC2)cc1F (relative stereo) [Example E116, N-[(3S*,4S*)-1-Acetyl-4-hydroxypiperidin-3-yl]-4-[2-(cyclopropylmethoxy)-4-fluoro-5-methoxyphenyl]-6-methyl-5H-pyrrolo[3,2-d]pyrimidine-7-carboxamide]",< 1
8,"CCC(=O)N1CC[C@@H](NC(=O)c2c(C)[nH]c3c(-c4ccc(F)cc4OCC4CC4)ncnc23)C1 [Example E29, 4-[2-(Cyclopropylmethoxy)-4-fluorophenyl]-6-methyl-N-[(3R)-1-propanoylpyrrolidin-3-yl]-5H-pyrrolo[3,2-d]pyrimidine-7-carboxamide]",< 1
9,"COCC(=O)N1CC[C@@H](NC(=O)c2c(C)[nH]c3c(-c4cc(F)c(OC)cc4OCC4CC4)ncnc23)C1 [Example E188, 4-[2-(Cyclopropylmethoxy)-5-fluoro-4-methoxyphenyl]-N-[(3R)-1-(methoxyacetyl)pyrrolidin-3-yl]-6-methyl-5H-pyrrolo[3,2-d]pyrimidine-7-carboxamide]",< 1
10,"COCC(=O)N1C[C@@H](O)[C@H](NC(=O)c2c(C)[nH]c3c(-c4ccc(F)cc4OCC4CC4)ncnc23)C1 (relative stereo) [Example E33, 4-[2-(Cyclopropylmethoxy)-4-fluorophenyl]-N-[(3R*,4R*)-4-hydroxy-1-(methoxyacetyl)pyrrolidin-3-yl]-6-methyl-5H-pyrrolo[3,2-d]pyrimidine-7-carboxamide]",1 to 10
11,"CCC(=O)N[C@H]1CC[C@@H](NC(=O)c2c(C)[nH]c3c(-c4cc(F)c(OC)cc4OCC4CC4)ncnc23)CC1 [Example E139, 4-[2-(Cyclopropylmethoxy)-5-fluoro-4-methoxyphenyl]-6-methyl-N-[cis-4-(propionylamino)cyclohexyl]-5H-pyrrolo[3,2-d]pyrimidine-7-carboxamide]",< 1
